From patent US20230167103A1 (Bayer Aktiengesellschaft, priority 2020, published 2023)

biological target: T1, human DGKζ (Homo sapiens, UniProt Q13574); assay: Human DGKζ kinase activity inhibition assay (ADP-Glo); assay type: biochemical; settings: example compounds; recombinant full-length human DGKζ, 1,2-dioleoyl-sn-glycerol 7 μM, ATP 55 μM, 20 min at 22° C.; read-out: IC50 values of examples in in vitro human DGKζ kinase activity inhibition assays
T1 construct: made in house; host or cells: Sf9 insect cells, baculovirus
Method in brief: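 Enzyme was C-terminally FLAG-tagged full-length human DGKζ from baculovirus-infected insect cells, typically about 0.1 nM, with 1,2-dioleoyl-sn-glycerol in octyl-β-D-glucopyranoside micelles as substrate. ADP formed was detected by ADP-Glo luminescence; data normalised to no-inhibitor (0%) and no-enzyme (100%) controls.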

T1 sequence (Q13574 with tags, fused parts or gaps): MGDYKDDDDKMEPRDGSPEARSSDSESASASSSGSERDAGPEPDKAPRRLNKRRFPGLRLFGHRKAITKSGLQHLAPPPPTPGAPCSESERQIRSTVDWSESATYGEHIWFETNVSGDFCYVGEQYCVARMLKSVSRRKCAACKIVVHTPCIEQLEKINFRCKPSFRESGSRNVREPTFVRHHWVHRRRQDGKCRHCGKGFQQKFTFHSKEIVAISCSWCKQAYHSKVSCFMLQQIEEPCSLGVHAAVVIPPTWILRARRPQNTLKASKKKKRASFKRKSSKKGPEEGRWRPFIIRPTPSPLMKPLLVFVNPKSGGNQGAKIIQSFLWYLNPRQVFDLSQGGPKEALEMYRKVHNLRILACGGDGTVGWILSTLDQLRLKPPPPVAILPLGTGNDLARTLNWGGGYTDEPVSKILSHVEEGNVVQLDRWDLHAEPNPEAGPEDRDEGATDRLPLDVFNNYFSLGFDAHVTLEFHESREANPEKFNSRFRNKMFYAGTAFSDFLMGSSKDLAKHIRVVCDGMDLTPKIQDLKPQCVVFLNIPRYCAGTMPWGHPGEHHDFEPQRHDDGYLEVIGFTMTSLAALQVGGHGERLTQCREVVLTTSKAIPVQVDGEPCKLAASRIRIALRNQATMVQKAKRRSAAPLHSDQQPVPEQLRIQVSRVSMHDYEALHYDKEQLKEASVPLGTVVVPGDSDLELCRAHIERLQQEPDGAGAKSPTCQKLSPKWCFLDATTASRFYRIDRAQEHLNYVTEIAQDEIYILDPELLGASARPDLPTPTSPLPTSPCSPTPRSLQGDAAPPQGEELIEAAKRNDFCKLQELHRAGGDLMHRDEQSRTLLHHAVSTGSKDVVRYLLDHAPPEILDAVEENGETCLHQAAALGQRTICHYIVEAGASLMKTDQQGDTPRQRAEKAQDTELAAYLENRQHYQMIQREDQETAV

Compound | IC50
CC(C(N)=O)N(c1ccc(F)cc1)c1nc(N)c(C(=O)c2cc(CN3CCCCC3)no2)s1 (racemic) [Example 63, rac-2-(N-[4-amino-5-[3-(1-piperidylmethyl)isoxazole-5-carbonyl]thiazol-2-yl]-4-fluoro-anilino)propanamide] | 88 nM
CC(C(N)=O)N(c1ccc(F)c(F)c1)c1nc(N)c(C(=O)c2cc(C(=O)NC3CCCC3)no2)s1 (single isomer, unassigned) [Example 46.2, 5-[4-amino-2-(N-(2-amino-1-methyl-2-oxo-ethyl)-3,4-difluoro-anilino)thiazole-5-carbonyl]-N-cyclopentyl-isoxazole-3-carboxamide] | 2280 nM
CC(C(N)=O)N(c1ccc(F)cc1)c1nc(N)c(C(=O)c2cc(-c3ccc(Cl)cc3)no2)s1 (racemic) [Example 5, rac-2-(N-[4-amino-5-[3-(4-chlorophenyl)isoxazole-5-carbonyl]thiazol-2-yl]-4-fluoro-anilino)propanamide] | 67 nM
COc1ccccc1-c1cc(C(=O)c2sc(N(c3ccc(F)cc3)C(C)C(N)=O)nc2N)on1 (racemic) [Example 70, rac-2-(N-[4-amino-5-[3-(2-methoxyphenyl)isoxazole-5-carbonyl]thiazol-2-yl]-4-fluoro-anilino)propanamide] | 27 nM
CC(C(N)=O)N(c1ccc(F)cc1)c1nc(N)c(C(=O)c2nc(-c3cccc(F)c3)no2)s1 (racemic) [Example 55, rac-2-(N-[4-amino-5-[3-(3-fluorophenyl)-1,2,4-oxadiazole-5-carbonyl]thiazol-2-yl]-4-fluoro-anilino)propanamide] | 17 nM
CC(C(N)=O)N(c1ccc(F)cc1)c1nc(N)c(C(=O)c2cc(Br)no2)s1 (single isomer, unassigned) [Example 6.1, 2-(N-[4-amino-5-(3-bromoisoxazole-5-carbonyl)thiazol-2-yl]-4-fluoro-anilino)propanamide] | 64 nM
CC(C(N)=O)N(c1ccc(F)cc1)c1nc(N)c(C(=O)c2cc(CN3CC(F)(F)C3)no2)s1 (racemic) [Example 74, rac-2-(N-[4-amino-5-[3-[(3,3-difluoroazetidin-1-yl)methyl]isoxazole-5-carbonyl]thiazol-2-yl]-4-fluoro-anilino)propanamide] | 113 nM
CC(C(N)=O)N(c1ccc(F)cc1)c1nc(N)c(C(=O)c2cc(C(=O)NC34CC(C3)C4)no2)s1 (racemic) [Example 31, rac-5-[4-amino-2-(N-(2-amino-1-methyl-2-oxo-ethyl)-4-fluoro-anilino)thiazole-5-carbonyl]-N-(1-bicyclo[1.1.1]pentanyl)isoxazole-3-carboxamide] | 193 nM
CC(C(N)=O)N(c1ccc(F)cc1)c1nc(N)c(C(=O)c2nc(-c3ccccn3)no2)s1 (racemic) [Example 54, rac-2-(N-[4-amino-5-[3-(2-pyridyl)-1,2,4-oxadiazole-5-carbonyl]thiazol-2-yl]-4-fluoro-anilino)propanamide] | 306 nM
CC(C(N)=O)N(c1ccc(F)cc1)c1nc(N)c(C(=O)c2nc(-c3ccc(Cl)cc3)no2)s1 (racemic) [Example 1, rac-2-(N-[4-amino-5-[3-(4-chlorophenyl)-1,2,4-oxadiazole-5-carbonyl]thiazol-2-yl]-4-fluoro-anilino)propanamide] | 9 nM
CC(C(N)=O)N(c1ccc(F)cc1)c1nc(N)c(C(=O)c2cc(C(=O)NC3(C4CC4)CC3)no2)s1 (racemic) [Example 24, rac-5-[4-amino-2-(N-(2-amino-1-methyl-2-oxo-ethyl)-4-fluoro-anilino)thiazole-5-carbonyl]-N-(1-cyclopropylcyclopropyl)isoxazole-3-carboxamide] | 120 nM
CC(C(N)=O)N(c1ccc(F)c(F)c1)c1nc(N)c(C(=O)c2cc(C(=O)NC3(C)CCC3)no2)s1 (single isomer, unassigned) [Example 44.1, 5-[4-amino-2-(N-(2-amino-1-methyl-2-oxo-ethyl)-3,4-difluoro-anilino)thiazole-5-carbonyl]-N-(1-methylcyclobutyl)isoxazole-3-carboxamide] | 19 nM
CC(C(N)=O)N(c1ccc(F)cc1)c1nc(N)c(C(=O)c2cc(-c3ccccn3)no2)s1 (racemic) [Example 68, rac-2-(N-[4-amino-5-[3-(2-pyridypisoxazole-5-carbonyl]thiazol-2-yl]-4-fluoro-anilino)propanamide] | 402 nM
CC(C(N)=O)N(c1ccc(F)cc1)c1nc(N)c(C(=O)c2cc(C(=O)Nc3ccccn3)no2)s1 (racemic) [Example 28, rac-5-[4-amino-2-(N-(2-amino-1-methyl-2-oxo-ethyl)-4-fluoro-anilino)thiazole-5-carbonyl]-N-(2-pyridyl)isoxazole-3-carboxamide] | 90 nM
CC(C)c1noc(C(=O)c2sc(N(c3ccc(F)cc3)C(C)C(N)=O)nc2N)n1 (racemic) [Example 49, rac-2-(N-[4-amino-5-(3-isopropyl-1,2,4-oxadiazole-5-carbonyl)thiazol-2-yl]-4-fluoro-anilino)propanamide] | 28 nM
CC(C(N)=O)N(c1ccc(F)cc1)c1nc(N)c(C(=O)c2cc(-c3ccc(Cl)cc3Cl)no2)s1 (racemic) [Example 4, rac-2-(N-[4-amino-5-[3-(2,4-dichlorophenyl)isoxazole-5-carbonyl]thiazol-2-yl]-4-fluoro-anilino)propanamide] | 37 nM
CC(C(N)=O)N(c1ccc(F)cc1)c1nc(N)c(C(=O)c2nc(C(C)(C)C)no2)s1 (racemic) [Example 53, rac-2-(N-[4-amino-5-(3-tert-butyl-1,2,4-oxadiazole-5-carbonyl)thiazol-2-yl]-4-fluoro-anilino)propanamide] | 25 nM
CC(C(N)=O)N(c1ccc(F)cc1)c1nc(N)c(C(=O)c2cc(OC(F)F)no2)s1 (racemic) [Example 48, rac-2-(N-[4-amino-5-[3-(difluoromethoxy)isoxazole-5-carbonyl]thiazol-2-yl]-4-fluoro-anilino)propanamide] | 73 nM
CC(C(N)=O)N(c1ccc(F)cc1)c1nc(N)c(C(=O)c2cc(OCC3CCC3)no2)s1 (racemic) [Example 80, rac-2-(N-[4-amino-5-[3-(cyclobutylmethoxy)isoxazole-5-carbonyl]thiazol-2-yl]-4-fluoro-anilino)propanamide] | 31 nM
CC(C(N)=O)N(c1ccc(F)cc1)c1nc(N)c(C(=O)c2cc(OC3CCC3)no2)s1 (racemic) [Example 79, rac-2-(N-[4-amino-5-[3-(cyclobutoxy)isoxazole-5-carbonyl]thiazol-2-yl]-4-fluoro-anilino)propanamide] | 88 nM
CC(C(N)=O)N(c1ccc(F)cc1)c1nc(N)c(C(=O)c2cc(C(=O)N[C@@H]3C[C@@H]3F)no2)s1 (mixture of isomers) [Example 11, 5-[4-amino-2-(N-(2-amino-1-methyl-2-oxo-ethyl)-4-fluoro-anilino)thiazole-5-carbonyl]-N-[(cis)-2-fluorocyclopropyl]isoxazole-3-carboxamide] | 2360 nM
CC(C(N)=O)N(c1ccc(F)cc1)c1nc(N)c(C(=O)c2cc(Br)no2)s1 (racemic) [Example 6, rac-2-(N-[4-amino-5-(3-bromoisoxazole-5-carbonyl)thiazol-2-yl]-4-fluoro-anilino)propanamide] | 123 nM
CC(C(N)=O)N(c1ccc(F)cc1)c1nc(N)c(C(=O)c2cc(-c3ccncc3)no2)s1 (racemic) [Example 8, rac-2-(N-[4-amino-5-[3-(4-pyridyl)isoxazole-5-carbonyl]thiazol-2-yl]-4-fluoro-anilino)propanamide] | 728 nM
CC(C(N)=O)N(c1ccc(F)cc1)c1nc(N)c(C(=O)c2cc(-c3ccccc3)ns2)s1 (racemic) [Example 50, rac-2-(N-[4-amino-5-(3-phenylisothiazole-5-carbonyl)thiazol-2-yl]-4-fluoro-anilino)propanamide] | 409 nM

same assay, conditions: intermediates (comparative, lacking the R2 alkyl-carboxamide group); same assay conditions; read-out: IC50 values of intermediates in in vitro human DGKζ kinase activity inhibition assays

Compound | IC50
rac-5-[4-amino-2-(N-(2-amino-1-methyl-2-oxo-ethyl)-4-fluoro-anilino)thiazole-5-carbonyl]-N-(1-cyclopropylcyclopropyl)isoxazole-3-carboxamide [Example 24] | > 20000 nM
rac-2-(N-[4-amino-5-[3-(pyrrolidine-1-carbonyl)isoxazole-5-carbonyl]thiazol-2-yl]-4-fluoro-anilino)propanamide [Example 19] | > 20000 nM
